Results as given in patent publication US12145947B2, “Pyrimidine based modulators and uses thereof” (Quanta Therapeutics, Inc., priority 2022, dated 2024).

Legend:
[1] = target: T1, GST-tagged KRAS-G12D (2-169) (Homo sapiens, UniProt P01116, G12D); experiment: Nucleotide exchange assay (NEA), SOS-mediated, HTRF, KRAS G12D; assay type: biochemical; settings: Table 4; IC50 extracted at 30 min
T1 construct: GST-tagged KRAS-G12D (2-169, Reaction Biology, MSC-11-539); purchased Reaction Biology MSC-11-539 (KRAS G12D); MSC-11-502 (SOS1cat)
Outline: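 GST-KRAS-G12D (2-169, 5 nM final) with Tb-anti-GST donor was preincubated with compound 1 h at RT (pH 7.3 HEPES buffer, MgCl2, DTT), then SOScat (564-1049, 20 nM) and GTP-DY-647P1 (150 nM) were added. HTRF was read at RT; % inhibition vs DMSO/no-SOS blank, 4-parameter IC50 taken at 30 min.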

KRAS G12D/RAF1 = target: T2, KRAS G12D/RAF1 (Homo sapiens, UniProt P01116, G12D); experiment: Protein-protein interaction (PPI) HTRF assay KRAS G12D/RAF1; assay type: binding; settings: Table 4
T2 construct: His6-MBP (N, cleaved yes); made in house; host or cells: E. coli
Outline: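 Biotinylated human KRAS (1-169; wt, G12D, G12V) or wt NRAS, GppNHp-loaded, pre-incubated 30 min RT with compound and streptavidin-d2, then His-RAF1 RBD (52-131) with anti-6His Tb cryptate added for 1 h RT. HTRF 665/615 ratio normalized to no compound (0%) and untagged RAF1 (100%); IC50.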

T2 sequence (P01116 with tags, fused parts or gaps isoform P01116-2 G12D): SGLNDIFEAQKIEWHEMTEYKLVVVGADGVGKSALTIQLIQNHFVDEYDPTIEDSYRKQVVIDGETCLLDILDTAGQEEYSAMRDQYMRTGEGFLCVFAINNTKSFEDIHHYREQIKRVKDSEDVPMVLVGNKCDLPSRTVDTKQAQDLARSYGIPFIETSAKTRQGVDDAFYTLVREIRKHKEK
T1 sequence (P01116 2-169 isoform P01116-2 G12D): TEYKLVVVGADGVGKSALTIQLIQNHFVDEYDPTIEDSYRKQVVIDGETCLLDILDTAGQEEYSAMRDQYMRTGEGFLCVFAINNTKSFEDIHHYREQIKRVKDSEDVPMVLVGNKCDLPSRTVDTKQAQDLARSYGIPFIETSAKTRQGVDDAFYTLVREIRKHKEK

Row | SMILES | IC50 [1] [µM] | IC50 (KRAS G12D/RAF1) [µM]
1 | N#Cc1c(N2CCCC3(C2)NC(=O)NC3=O)nc(OC[C@@]23CCCN2C[C@H](F)C3)nc1N1CC2(CCc3sc(N)c(C#N)c32)C1 (stereo partly drawn) [Compound 12, 2-amino-1′-[5-cyano-6-(2,4-dioxo-1,3,9-triazaspiro[4.5]decan-9-yl)-2-[[(2R,8S)-2-fluoro-1,2,3,5,6,7-hexahydropyrrolizin-8-yl]methoxy]pyrimidin-4-yl]spiro[5,6-dihydrocyclopenta[b]thiophene-4,3′-azetidine]-3-carbonitrile] | < 0.01 | 0.1 to 1
2 | N#Cc1c(N2CC3COCC(C2)N3)nc(OC[C@]23CCCN2C[C@@H](F)C3)nc1N1CC2(CCc3sc(N)c(C#N)c32)C1 [Compound 43, 2-amino-1′-[5-cyano-2-[[(2S,8R)-2-fluoro-1,2,3,5,6,7-hexahydropyrrolizin-8-yl]methoxy]-6-(3-oxa-7,9-diazabicyclo[3.3.1]nonan-7-yl)pyrimidin-4-yl]spiro[5,6-dihydrocyclopenta[b]thiophene-4,3′-azetidine]-3-carbonitrile] | 0.01 to 0.1 | 1 to 10
3 | Cc1n[nH]nc1COc1nc(N2C[C@H]3CC[C@@H](C2)N3)c(C#N)c(N2CC3(CCc4sc(N)c(C#N)c43)C2)n1 [Compound 108] | 0.01 to 0.1 | 10 to 100
4 | Cc1noc(-c2cc3n(n2)CCCN(c2nc(OC[C@@]45CCCN4C[C@H](F)C5)nc(N4CC5(CCc6sc(N)c(C#N)c65)C4)c2C#N)C3)n1 [Compound 16, 2-amino-1′-[5-cyano-6-[2-(3-methyl-1,2,4-oxadiazol-5-yl)-4,6,7,8-tetrahydropyrazolo[1,5-a][1,4]diazepin-5-yl]-2-[[(2R,8S)-2-fluoro-1,2,3,5,6,7-hexahydropyrrolizin-8-yl]methoxy]pyrimidin-4-yl]spiro[5,6-dihydrocyclopenta[b]thiophene-4,3′-azetidine]-3-carbonitrile] | < 0.01 | 10 to 100
5 | CN(C)C(=O)c1nn2c(c1Cl)CN(c1nc(OC[C@@]34CCCN3C[C@H](F)C4)nc(N3CC4(CCc5sc(N)c(C#N)c54)C3)c1C#N)CC(F)(F)C2 [Compound 91, 5-[6-(2-amino-3-cyano-spiro[5,6-dihydrocyclopenta[b]thiophene-4,3′-azetidine]-1′-yl)-5-cyano-2-[[(2R,8S)-2-fluoro-1,2,3,5,6,7-hexahydropyrrolizin-8-yl]methoxy]pyrimidin-4-yl]-3-chloro-7,7-difluoro-N,N-dimethyl-6,8-dihydro-4H-pyrazolo[1,5-a][1,4]diazepine-2-carboxamide] | < 0.01 | 0.1 to 1
